Inhibition percent data for 55 compounds are collected here from article PMC9995496, “A screen for MeCP2-TBL1 interaction inhibitors using a luminescence-based assay” (Scientific Reports, 2023).

For this test, the target named is T1, MeCP2-TBL1 interaction (MeCP2-SmBiT / TBL1-LgBiT) (Mus musculus, UniProt Q9QXE7).
T1 construct: expressed in transfected cells; crude lysate used as a cell-free assay
T1 sequence (Q9QXE7 166-527): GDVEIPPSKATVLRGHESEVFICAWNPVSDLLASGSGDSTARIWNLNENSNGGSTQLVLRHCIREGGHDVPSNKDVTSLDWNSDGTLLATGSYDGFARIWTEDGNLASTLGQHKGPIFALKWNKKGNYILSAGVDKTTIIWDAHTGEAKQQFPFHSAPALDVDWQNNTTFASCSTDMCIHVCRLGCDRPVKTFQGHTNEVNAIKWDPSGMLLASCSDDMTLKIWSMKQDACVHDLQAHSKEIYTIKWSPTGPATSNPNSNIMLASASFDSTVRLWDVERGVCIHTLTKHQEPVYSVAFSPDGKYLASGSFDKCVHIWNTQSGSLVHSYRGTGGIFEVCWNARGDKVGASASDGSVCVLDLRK
As to the kind of experiment: MeCP2-TBL1 NanoLuc luciferase complementation assay (cell-free, extracts of transfected HEK293 cells).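 Note: each compound tested at 20 µM final concentration.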 The test is classed as binding, human. An outline of the steps:
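Cell-free split NanoLuc: lysate of HEK293 cells co-expressing the MeCP2 C-terminal half-SmBiT and TBL1 WD domain-LgBiT, mixed 1:1 with furimazine. After 30 min at room temperature, luminescence was plate-median normalized.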

Where [1] appears, read: primary screen of the Asinex library, sheet "Sargen output Asinex library", one well per compound.
[2] abbreviates: primary screen of Asinex library, single well per compound.
Where [3] appears, read: primary screen of the Asinex library, sheet "Sargen output Asinex library", one well per compound, Batch Ref. 1.

For the compound `CNC(=O)c1ccc(-c2cccc(C3CN(CC(=O)NCc4ccccn4)CCO3)n2)cn1` (stereo not shown) [BDF_25324043], under setting [1], the Inhibition percent is given as 1.99%. For the compound `Cc1ccc(=O)n(CC(=O)N2CCOC3(CC=CCN(CCc4ccccc4)C3=O)C2)n1` (stereo not shown) [BDF_25862113], under setting [2], the Inhibition percent is recorded as 3.93. As to `O=C(CC1CCCCC1)N1CCOC(c2nccnc2-c2cccc(C(F)(F)F)c2)C1` (stereo not shown) [BDF_25939482], under setting [3], the Inhibition percent is 0.68%. As for `Cc1cc(-c2ccc(N)nc2)cc(C2CN(C(=O)CCc3cccc(Cl)c3)CCO2)n1` (stereo not shown) [BDF_26216758], the Inhibition percent under setting [3] is on record as 8.38%. For the compound `Cc1cc(Cc2cccc(F)c2)cc(C2CN(C(=O)Cc3ccc(F)cc3)CCO2)n1` (stereo not shown) [BDF_26219393], the Inhibition percent under setting [3] was -0.80%. For the compound `Cc1cc(Cc2ccccc2F)cc(C2CN(C(=O)Cn3cnc4ccccc43)CCO2)n1` (stereo not shown) [BDF_26219772], the Inhibition percent under setting [3] was determined as 3.08%. As for `Cc1nc(C2(O)CCCN(Cc3ccncc3)CC2)sc1CCOc1ccccc1` (stereo not shown) [BDF_26909339], under setting [3], the Inhibition percent is on record as -3.76%. As for `FC(F)(F)c1ccccc1Cc1cccc(C2CN(Cc3cccnc3)CCO2)n1` (stereo not shown) [BDF_27574784], under setting [3], the Inhibition percent is given as 32.27%. `CC(=O)Nc1ccc(C(=O)N2CCOC(c3cccc(Cc4ccccc4Cl)n3)C2)cc1` (stereo not shown) [BDF_27578760]: the Inhibition percent under setting [3] is listed as 0.59%. On to `CC(=O)Nc1cccc([C@@H]2CN(CCc3ccc(F)cc3)C[C@]23CCCCC(=O)N3)c1` [BDF_30280717], for which the Inhibition percent under setting [3] was -0.37%.

Consider `CC(=O)N[C@@]12CCN(S(=O)(=O)Cc3cccc(Cl)c3)C[C@@H]1[C@@H](c1ccccc1)N(C(C)=O)C2` [BDF_30361318], for which, under setting [2], the Inhibition percent is given as -5.79.

Take `Cc1cccc(CN(CCc2c[nH]c3ccccc23)[C@@H]2CC[C@@H](NCc3ccccc3)[C@H]2O)c1` [BDF_33953574]: under setting [1], the Inhibition percent was found to be 3.88%.

On to `COCCOc1cccc(CN2[C@H](Cc3ccccc3F)C[C@@H]3NC(=O)CCCC[C@H]32)c1` [BDG_23917768], for which the Inhibition percent under setting [2] is listed as -0.22. In the case of `COc1ccccc1-c1ccc(CN2[C@@H](c3ccccc3)C[C@@H]3NC(=O)CCC[C@H]32)cc1` [BDG_23930473], under setting [3], the Inhibition percent worked out at 6.28%. Consider `Cn1c(CCC(=O)N2CC[C@@H]3[C@H]2CCCC(=O)N3Cc2ccc(F)cc2)nc2ccccc21` [BDG_23960040], for which the Inhibition percent under setting [3] is listed as 1.86%. Take `CN(CCC(=O)N1[C@H](Cc2ccccc2)C[C@]2(C)NC(=O)CCC[C@H]12)Cc1ccccn1` [BDG_24639113]: the Inhibition percent under setting [1] is -2.30%. On to `Cc1cc(C)nc(NCCCC(=O)N2[C@H](Cc3ccccc3)C[C@]3(C)NC(=O)CCC[C@H]23)n1` [BDG_24639132], for which the Inhibition percent under setting [2] was -1.41.

As for `O=C1CCC[C@H]2[C@@H](C[C@@H](c3cccc(C(F)(F)F)c3)N2C(=O)CCc2ccccc2)N1` [BDG_27570843], under setting [3], the Inhibition percent turned out to be 0.77%. With `CC(=O)N[C@@]12CCN(CCOc3ccc(F)cc3)C[C@@H]1[C@@H](c1ccccc1)N(C(C)=O)C2` [BDG_30283198], the Inhibition percent under setting [1] is -0.86%. Regarding `C[C@]12C[C@@H]3N[C@H]1CCC[C@H]2N(Cc1ccccc1C(=O)O)[C@H]3Cc1ccccc1` [BDG_33391350], under setting [3], the Inhibition percent is listed as -0.20%. As for `C[C@]12C[C@@H]3N[C@H]1CCC[C@H]2N(C(=O)COc1ccccc1F)[C@H]3Cc1ccccc1` [BDG_33391690], the Inhibition percent under setting [3] stood at 4.10%. `C[C@@]12C[C@H]3[C@@H](Cc4ccccc4)N[C@@H]1CCC[C@@H]2N3C(=O)c1cccc(Cc2ccccc2F)n1` [BDG_33393042]: the Inhibition percent under setting [2] is listed as -2.99. With `C[C@]12C[C@@H]3N[C@H]1CCC[C@H]2N(C(=O)c1cccc(Cc2ccccc2F)n1)[C@H]3Cc1ccccc1` [BDG_33393043], the Inhibition percent under setting [1] is given as 5.29%.

Consider `C[C@@]12C[C@H]3[C@H](Cc4ccccc4)N[C@@H]1CCCC[C@@H]2N3C(=O)CNC(=O)c1ccccc1` [BDG_33503003], for which the Inhibition percent under setting [3] was 1.11%. In the case of `CC(=O)N1[C@H](Cc2ccccc2)[C@@H]2C[C@@]3(C)[C@H](CCC[C@@H]13)N2C(=O)CNC(=O)c1ccccc1` [BDG_33503016], under setting [3], the Inhibition percent is 3.61%. Regarding `COc1ccccc1OCC(=O)N1[C@@H](Cc2ccccc2)[C@@H]2C[C@@]3(C)[C@H](CCC[C@@H]13)N2` [BDG_33503207], the Inhibition percent under setting [3] is recorded as 2.88%. Same read-out and setting: the figure for `COc1cccc(-c2cc(C(=O)N3[C@H]4CCC[C@H]5N(C)[C@@H](Cc6ccccc6)[C@@H]3C[C@@]45C)[nH]n2)c1` [BDG_33504530] is 8.58%; for `C[C@@]12C[C@H]3[C@@H](Cc4ccccc4)N[C@@H]1CCCC[C@@H]2N3C(=O)CNC(=O)c1cncc(O)c1` [BDG_33504652] it is 0.85%. Consider `CCOc1ccc(-c2cc(C(=O)N3[C@@H](Cc4ccccc4)[C@@H]4C[C@@]5(C)[C@H](CCC[C@@H]35)N4)[nH]n2)cc1` [BDG_33504765], for which the Inhibition percent under setting [3] is 12.86%.

With `C[C@@]12C[C@H]3[C@H](Cc4ccccc4)N[C@@H]1CCCC[C@@H]2N3C(=O)COc1ccccc1` [BDG_33505297], the Inhibition percent under setting [3] is listed as -0.84%. Consider `C[C@]12C[C@@H]3N[C@H]1CCCC[C@H]2N(C(=O)COc1ccc(F)cc1F)[C@H]3Cc1ccccc1` [BDG_33505865], for which, under setting [2], the Inhibition percent worked out at 1.00. Turning to `COc1cccc(-c2cc(C(=O)N3[C@H]4CCC[C@H]5N(C)[C@H](Cc6ccccc6)[C@@H]3C[C@@]45C)on2)c1` [BDG_33506470], under setting [1], the Inhibition percent amounted to 3.67%. For the compound `Cc1nc(-c2cccnc2)sc1C(=O)N1[C@H]2CCC[C@H]3N[C@H](Cc4ccccc4)[C@@H]1C[C@@]23C` [BDG_33506581], the Inhibition percent under setting [1] is reported as -1.21%. On the same count and under the same terms, the figure for `CC(=O)N1[C@@H](Cc2ccccc2)[C@@H]2C[C@@]3(C)[C@H](CCCC[C@@H]13)N2Cc1ccc(OCC(=O)O)cc1` [BDG_33507682] is 3.50%; for `CCc1nccn1-c1ccc(C(=O)N2[C@H]3CCC[C@H]4N[C@@H](Cc5ccccc5)[C@@H]2C[C@@]34C)cn1` [BDG_33507727] it is -2.00%. As for `C[C@@]12C[C@H]3[C@H](Cc4ccccc4)N[C@@H]1CCC[C@@H]2N3C(=O)c1ccnc(Cc2ccccc2F)c1` [BDG_33507770], the Inhibition percent under setting [3] is given as -1.87%.

For `O=C(COc1ncnc2ccccc12)N1C[C@@H]2CC[C@H](Oc3ccc(Cl)cc3)[C@@H]2C1` [BDG_33516371], under setting [3], the Inhibition percent is reported as 0.45%. For `CN(C)[C@@H]1C[C@@H](C(N)=O)N(CC(=O)Nc2ccc(Oc3ccccc3)cc2)[C@H]1c1ccccc1` [BDG_33626169], the Inhibition percent under setting [3] is on record as 3.84%. With `C[C@]12C[C@@H](Cc3ccccc3)N(C(=O)CCNC(=O)c3cccnc3)[C@H]1CCCC(=O)N2` [BDG_33627395], the Inhibition percent under setting [2] is reported as 0.80. Turning to `Cn1c(COCC(=O)N2[C@H](Cc3ccccc3)C[C@]3(C)NC(=O)CCC[C@H]23)nc2ccccc21` [BDG_33628430], the Inhibition percent under setting [3] was -0.52%. Regarding `C[C@]12C[C@@H](Cc3ccccc3)N(C(=O)CCCNc3ncnc4ccccc34)[C@H]1CCCC(=O)N2` [BDG_33628681], under setting [3], the Inhibition percent is listed as -1.67%.

With `Cc1cccc(NC(=O)CCCC(=O)N2[C@H](Cc3ccccc3)C[C@]3(C)NC(=O)CCC[C@H]23)n1` [BDG_33629701], under setting [3], the Inhibition percent is reported as -3.82%. `CC(=O)N[C@H]1C[C@@H](C(=O)N(C)C)N(C(=O)CCCn2c(C)nc3ccccc32)[C@H]1c1ccccc1` [BDG_33630230]: under setting [2], the Inhibition percent is -0.15. For the compound `CN(CCC(=O)N1[C@H](Cc2ccccc2)C[C@]2(C)NC(=O)CCC[C@H]12)Cc1cccnc1` [BDG_33630477], the Inhibition percent under setting [1] is on record as -2.32%.

As to `CC(=O)N[C@H]1C[C@@H](C(=O)N(C)C)N(C(=O)CCn2cnc3ccccc32)[C@H]1c1ccccc1` [BDG_33631962], the Inhibition percent under setting [2] came out at 5.65.

With `COc1ccc2c(c1)[C@H]1OCC3(CCN(S(C)(=O)=O)CC3)C[C@@H]1C(C)(C)O2` [BDG_33690555], the Inhibition percent under setting [3] is -0.51%. Turning to `COc1ccc2c(c1)[C@H]1OCC3(CCN(Cc4cnccn4)CC3)C[C@@H]1C(C)(C)O2` [BDG_33690689], the Inhibition percent under setting [1] is reported as -2.69%. As to `Cc1cnc(C(=O)N2CCC3(CC2)CO[C@@H]2c4ccc(O)cc4OC(C)(C)[C@H]2C3)cn1` [BDG_33691581], the Inhibition percent under setting [1] was determined as 1.04%.

`CC1(C)Oc2cc(O)ccc2[C@H]2OCC3(CCN(C(=O)c4ncccc4O)CC3)C[C@@H]21` [BDG_33691662]: the Inhibition percent under setting [3] is -1.26%.

Turning to `CCOc1cccc2c1OC(C)(C)[C@H]1CC3(CCN(Cc4cnc(NC)nc4)CC3)CO[C@H]21` [BDG_33691710], the Inhibition percent under setting [2] is given as -4.17.

Regarding `COc1ccc2c(c1)OC(C)(C)[C@H]1CC3(CCN(C(=O)CCn4ccnc4)CC3)CO[C@H]21` [BDG_33691777], under setting [2], the Inhibition percent was -0.71.

Take `CCc1cc(C(=O)N2CCC3(CC2)CO[C@@H]2c4cc(OC)ccc4OC(C)(C)[C@H]2C3)no1` [BDG_33691868]: the Inhibition percent under setting [3] was found to be 2.32%. Take `Cc1ccc2c(c1)OC(C)(C)[C@H]1CC3(CCN(C(=O)CN4CCOCC4)CC3)CO[C@H]21` [BDG_33692107]: the Inhibition percent under setting [3] is -1.45%. Regarding `CC1(C)Oc2ccccc2[C@H]2OCC3(CCN(C(=O)CCc4cccnc4)CC3)C[C@@H]21` [BDG_33692190], under setting [3], the Inhibition percent is listed as -1.50%. For the compound `COc1cccc2c1OC(C)(C)[C@H]1CC3(CCN(C(=O)CCCc4ccncc4)CC3)CO[C@H]21` [BDG_33693373], under setting [1], the Inhibition percent is reported as -2.47%.
